Results on 48 molecules are retold here after patent US8609680B2, “2,3-dihydro-1H-inden-1-yl-2,7-diazaspiro[3.5] nonane derivatives” (Pfizer Inc., priority 2010, dated 2013).

The structures appear in SMILES notation.

T1 sequence (Q92847 whole entry): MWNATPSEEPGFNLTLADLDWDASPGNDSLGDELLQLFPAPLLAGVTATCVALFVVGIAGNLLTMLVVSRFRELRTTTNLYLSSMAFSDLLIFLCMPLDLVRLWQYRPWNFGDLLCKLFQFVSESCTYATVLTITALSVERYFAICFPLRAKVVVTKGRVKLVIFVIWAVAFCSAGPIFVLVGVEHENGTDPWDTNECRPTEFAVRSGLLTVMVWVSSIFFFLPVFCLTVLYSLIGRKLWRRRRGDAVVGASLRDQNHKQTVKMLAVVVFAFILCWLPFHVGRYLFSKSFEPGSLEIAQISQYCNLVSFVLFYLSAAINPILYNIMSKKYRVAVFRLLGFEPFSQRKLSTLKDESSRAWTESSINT

One test addresses T1, human GHSR1a (Homo sapiens, UniProt Q92847).
T1 construct: expressed in transfected cells; host or cells: HEK293 Tetracycline-Inducible cell line, used as membranes
The experiment in a line: Human Ghrelin SPA Binding Assay.
Conditions: not given
An excerpt:
The SPA format was utilized for high throughput screening of test compounds and filter binding served for more comprehensive binding characterization.
Human Ghrelin SPA Binding Assay
One may read the IC50 as the point on the concentration scale where inhibition reaches its midpoint. A higher IC50 goes with weaker potency in that assay. On to `COc1ccc(CC(=O)N2CCC3(CC2)CN(C2CCc4cc(-c5ncc(C)cn5)ccc42)C3)cc1` (racemic) [Example 1E], for which the IC50 worked out at 34.1 nM. By Ki is commonly meant the dissociation constant of the complex between target and ligand, obtained from inhibition or displacement. Read a low Ki as tighter binding. The molecule `COc1ccc(CC(=O)N2CCC3(CC2)CN(C2CCc4cc(-c5nccs5)ccc42)C3)nc1` (racemic) [Example 1F] showed a Ki of 22.8 nM. `COc1ccc(CC(=O)N2CCC3(CC2)CN(C2CCc4cc(Oc5ccccc5)ccc42)C3)nc1` (racemic) [Example 1I]: the IC50 worked out at 36.6 nM and the affinity corresponds to a Ki of 29.5 nM. `COc1ccc(CC(=O)N2CCC3(CC2)CN(C2CCc4cc(-c5ccnc(C)c5)ccc42)C3)nc1` (racemic) [Example 2B]: the IC50 is 6.75 nM. Still for that read-out and setting: the figure for `COc1ccc(CC(=O)N2CCC3(CC2)CN(C2CCc4cc(-c5ccc(C)cn5)ccc42)C3)nc1` (racemic) [Example 2D] is 21.4 nM. Turning to `COc1ccc(CC(=O)N2CCC3(CC2)CN(C2CCc4cc(-c5ncc(OC)cn5)ccc42)C3)nc1` (racemic) [Example 2E], the IC50 stood at 35.2 nM and the Ki stood at 63.6 nM. `COc1ccc(CC(=O)N2CCC3(CC2)CN(C2CCc4cc(-c5cc(C)ccn5)ccc42)C3)nc1` (racemic) [Example 2G] displayed an IC50 of 6.22 nM. That is a single-digit nanomolar value. In turn, `O=C(Cc1ccc(C2CC2)cc1)N1CCC2(CC1)CN(C1CCc3cc(-c4ncccn4)ccc31)C2` (racemic) [Example 5A, 7-[(4-Cyclopropylphenyl)acetyl]-2-(5-pyrimidin-2-yl-2,3-dihydro-1H-inden-1-yl)-2,7-diazaspiro[3.5]nonane] showed an IC50 of 7.02 nM and a Ki of 6.15 nM. Consider `O=C(Cc1cc2ccccn2n1)N1CCC2(CC1)CN(C1CCc3cc(-c4ncccn4)ccc31)C2` (racemic) [Example 5H], for which the IC50 was determined as 5.9 nM. For `O=C(Cc1cc2n(n1)CCCC2)N1CCC2(CC1)CN(C1CCc3cc(-c4ncccn4)ccc31)C2` (racemic) [Example 5I], the IC50 was 8.57 nM and the affinity corresponds to a Ki of 9.26 nM. With `Cc1cn2cc(CC(=O)N3CCC4(CC3)CN(C3CCc5cc(-c6ncccn6)ccc53)C4)nc2s1` (stereo not shown) [Example 1B], the Ki came out at 4.59 nM. Turning to `O=C(Cc1n[nH]c2ccccc12)N1CCC2(CC1)CN(C1CCc3cc(-c4ncccn4)ccc31)C2` (stereo not shown) [Example 1C], the IC50 is 16.4 nM and the Ki worked out at 14.2 nM. On to `COc1ccc(CC(=O)N2CCC3(CC2)CN(C2CCc4cc(-c5ccnc(C)n5)ccc42)C3)cc1` (stereo not shown) [Example 1D], for which the IC50 came out at 19.4 nM. The molecule `COc1ccc(CC(=O)N2CCC3(CC2)CN(C2CCc4cc(-c5nccs5)ccc42)C3)nc1` (stereo not shown) [Example 1F-1] registered a Ki of 3.98 nM. On to `COc1ccc(CC(=O)N2CCC3(CC2)CN(C2CCc4cc(-c5ncc(C)s5)ccc42)C3)nc1` (stereo not shown) [Example 1G], for which the IC50 turned out to be 7.56 nM and the affinity, expressed as Ki, was 8.67 nM. With `Cc1nn2cc(CC(=O)N3CCC4(CC3)CN(C3CCc5cc(-n6nccn6)ccc53)C4)nc2s1` (stereo not shown) [Example 1H], the IC50 amounted to 11.1 nM and the Ki turned out to be 10.4 nM. For `COc1ccc(CC(=O)N2CCC3(CC2)CN(C2CCc4cc(-c5nccc(C)n5)ccc42)C3)cc1` (stereo not shown) [Example 1J] the same measures were 5.25 nM and 5.12 nM.

The molecule `Cc1ccnc(-c2ccc3c(c2)CCC3N2CC3(CCN(C(=O)Cc4cn5cc(C)sc5n4)CC3)C2)n1` (stereo not shown) [Example 1K] came in with an IC50 of 25.9 nM. As to `CCc1cc(-c2ccc3c(c2)CC[C@H]3N2CC3(CCN(C(=O)Cc4ccc(OC)cc4C#N)CC3)C2)ncn1` [Example 3AB], the IC50 was 32.9 nM and the Ki amounted to 28.8 nM. Take `COc1ccc(CC(=O)N2CCC3(CC2)CN([C@@H]2CCc4cc(-c5cc(C#N)ncn5)ccc42)C3)nc1` [Example 3AC]: the IC50 was 40.5 nM and affinity was put at a Ki of 33.8 nM. In turn, `COc1ccc(CC(=O)N2CCC3(CC2)CN([C@@H]2CCc4cc(-c5ccncn5)ccc42)C3)nc1` [Example 3AE] had an IC50 of 73.2 nM and a Ki of 68.9 nM. In turn, `COc1ccc(CC(=O)N2CCC3(CC2)CN([C@@H]2CCc4cc(-c5ncco5)ccc42)C3)nc1` [Example 3AG] returned an IC50 of 40.1 nM and a Ki of 33.1 nM. The corresponding values for `O=C(Cc1ccc(C(F)(F)F)cc1)N1CCC2(CC1)CN([C@@H]1CCc3cc(-c4ncccn4)ccc31)C2` [Example 3AH] are 90.2 nM and 72.8 nM. For `COc1ccc(CC(=O)N2CCC3(CC2)CN([C@@H]2CCc4ccccc42)C3)cc1` [Example 3AJ] the same measures were 293 nM and 261 nM. As to `CCn1ccc(CC(=O)N2CCC3(CC2)CN([C@@H]2CCc4cc(-c5ncccn5)ccc42)C3)n1` [Example 3AS], the IC50 turned out to be 143 nM and the Ki was found to be 122 nM. The molecule `O=C(Cc1cn(-c2ccccc2)cn1)N1CCC2(CC1)CN([C@@H]1CCc3cc(-c4ncccn4)ccc31)C2` [Example 3AV] displayed an IC50 of 229 nM and a Ki of 198 nM. The corresponding values for `O=C(Cc1ccc(C(F)F)cn1)N1CCC2(CC1)CN([C@@H]1CCc3cc(-c4ncccn4)ccc31)C2` [Example 3AW] are 949 nM and 785 nM. The corresponding values for `Cc1cc(CC(=O)N2CCC3(CC2)CN([C@@H]2CCc4cc(-c5ncccn5)ccc42)C3)[nH]n1` [Example 3AX] are 801 nM and 691 nM. In turn, `Cc1cc(-c2ccc3c(c2)CC[C@H]3N2CC3(CCN(C(=O)Cc4cn5nccnc5n4)CC3)C2)ncn1` [Example 3AY] showed an IC50 of 495 nM and a Ki of 440 nM. The corresponding values for `N#Cc1cc(-c2ccc3c(c2)CC[C@H]3N2CC3(CCN(C(=O)Cc4ccc(C5CC5)cn4)CC3)C2)ncn1` [Example 3AZ] are 17.4 nM and 15.4 nM. The corresponding values for `Cc1ccc(CC(=O)N2CCC3(CC2)CN([C@@H]2CCc4cc(-c5ccn(C)n5)ccc42)C3)nc1` [Example 3J] are 52.9 nM and 46.5 nM.

`COc1ccc(CC(=O)N2CCC3(CC2)CN([C@@H]2CCc4cc(-c5ccnc(C)n5)ccc42)C3)nc1` [Example 3K] came in with an IC50 of 99.5 nM and a Ki of 87.1 nM. The corresponding values for `Cc1nn2cc(CC(=O)N3CCC4(CC3)CN([C@@H]3CCc5cc(-c6ncccn6)ccc53)C4)nc2s1` [Example 3O] are 30.2 nM and 28.1 nM. The corresponding values for `COc1ccc(NC(C)=O)c(CC(=O)N2CCC3(CC2)CN([C@@H]2CCc4cc(-c5ncccn5)ccc42)C3)c1` [Example 3P] are 36.3 nM and 31.7 nM. The corresponding values for `O=C(Cc1cn2ccccc2n1)N1CCC2(CC1)CN([C@@H]1CCc3cc(-c4ncccn4)ccc31)C2` [Example 3Q] are 26.6 nM and 23 nM.

On to `O=C(Cc1ccc2c(n1)OCCO2)N1CCC2(CC1)CN([C@@H]1CCc3cc(-c4ncccn4)ccc31)C2` [Example 3R], for which the IC50 worked out at 25.5 nM and the Ki was determined as 22.2 nM. For `Cc1ccc(CC(=O)N2CCC3(CC2)CN([C@@H]2CCc4cc(-c5nccc(C)n5)ccc42)C3)nc1` [Example 3T] the same measures were 82.4 nM and 73 nM. Molecule `COc1ccc(CC(=O)N2CCC3(CC2)CN([C@@H]2CCc4cc(-c5cc(OC)ncn5)ccc42)C3)nc1` [Example 3V] showed an IC50 of 20.7 nM and a Ki of 17.4 nM. For `Cc1ccnc(-c2ccc3c(c2)CC[C@H]3N2CC3(CCN(C(=O)Cc4cn5nc(C)sc5n4)CC3)C2)n1` [Example 3Y] the same measures were 30.7 nM and 25.9 nM. For `Cc1ccn2cc(CC(=O)N3CCC4(CC3)CN([C@@H]3CCc5cc(-c6ccc(C(N)=O)cc6)ccc53)C4)nc2c1` [Example 4A, 4-[(1R)-1-{7-[(7-methylimidazo[1,2-a]pyridin-2-yl)acetyl]-2,7-diazaspiro[3.5]non-2-yl}-2,3-dihydro-1H-inden-5-yl]benzamide] the same measures were 9.29 nM and 8.02 nM.

Consider `COc1ccc(CC(=O)N2CCC3(CC2)CN([C@@H]2CCc4cc(-c5ccc(C#N)nc5)ccc42)C3)nc1` [Example 4B, 5-[(1R)-1-{7-[(5-methoxypyridin-2-yl)acetyl]-2,7-diazaspiro[3.5]non-2-yl}-2,3-dihydro-1H-inden-5-yl]pyridine-2-carbonitrile], for which the IC50 came out at 70.5 nM and the Ki was 60.7 nM. As to `CCc1ccc(CC(=O)N2CCC3(CC2)CN([C@@H]2CCc4cc(-c5ccc(C(N)=O)cc5)ccc42)C3)nc1` [Example 4C], the IC50 came to 49.3 nM and the Ki amounted to 43.3 nM.

As to `COc1ccc(CC(=O)N2CCC3(CC2)CN([C@@H]2CCc4cc(-c5ccc(C(N)=O)cc5)ccc42)C3)nc1` [Example 4D], the IC50 is 20.1 nM and the Ki was found to be 17.5 nM. The corresponding values for `NC(=O)c1ccc(-c2ccc3c(c2)CC[C@H]3N2CC3(CCN(C(=O)Cc4cn5ccccc5n4)CC3)C2)cc1` [Example 4E] are 42.6 nM and 36.8 nM. As for `O=C(Cc1ccc(C2CC2)cc1)N1CCC2(CC1)CN([C@@H]1CCc3cc(-c4ncccn4)ccc31)C2` [Example 5A-1, (R)-7-[(4-cyclopropylphenyl)acetyl]-2-(5-pyrimidin-2-yl-2,3-dihydro-1H-inden-1-yl)-2,7-diazaspiro[3.5]nonane], the IC50 worked out at 4.5 nM and the Ki stood at 3.77 nM. In turn, `CCc1ccc(CC(=O)N2CCC3(CC2)CN([C@@H]2CCc4cc(-n5nccn5)ccc42)C3)nc1` [Example 5D] returned an IC50 of 18.6 nM. `Cc1ccc(CC(=O)N2CCC3(CC2)CN([C@@H]2CCc4cc(-c5ncccn5)ccc42)C3)cc1` [Example 5E] came in with an IC50 of 18.6 nM and a Ki of 15.6 nM. `CCc1ccc(CC(=O)N2CCC3(CC2)CN([C@@H]2CCc4cc(-c5ncccn5)ccc42)C3)cc1` [Example 5F] had an IC50 of 12.8 nM and an inhibition constant Ki of 10.4 nM.

Still in this test, the particulars now being: SPA format, [125I] ghrelin displacement, human GHSR1a membranes from HEK293 Tetracycline-Inducible cell line.
For the molecule `Cc1cn2cc(CC(=O)N3CCC4(CC3)CN(C3CCc5cc(-c6ncccn6)ccc53)C4)nc2s1` (stereo not shown) [Example 1B], the IC50 amounted to 3.79 nM. Still for that read-out and setting: the figure for `COc1ccc(CC(=O)N2CCC3(CC2)CN(C2CCc4cc(-c5nccs5)ccc42)C3)nc1` (stereo not shown) [Example 1F-1] is 5.46 nM.

Still in this test, the particulars now being: SPA format, [125I] ghrelin displacement, human GHSR1a membranes; Ki=IC50/(1+[ligand]/Kd).
With `CCc1ccc(CC(=O)N2CCC3(CC2)CN([C@@H]2CCc4cc(-n5nccn5)ccc42)C3)nc1` [Example 5D], the inhibition constant (Ki) worked out at 16.1 nM. This lies in the double-digit nanomolar range.
